Experiments:
Type in all cases: functional
[1] = tested on: HCC 2998; experiment: Cytotoxicity against Homo sapiens (human) HCC2998 cells assessed as growth inhibition at 10 uM after 48 hr by coulter counter analysis; conditions: HCC 2998, 48 h, read-out: GI
[2] = tested on: NCI-H226; experiment: Cytotoxicity against Homo sapiens (human) NCI-H226 cells assessed as growth inhibition at 10 uM after 48 hr by coulter counter analysis; conditions: NCI-H226, 48 h, read-out: GI
[3] = tested on: SN12C; experiment: Cytotoxicity against Homo sapiens (human) SN12C cells assessed as growth inhibition at 10 uM after 48 hr by coulter counter analysis; conditions: read-out: GI
[4] = tested on: NCI-H522; experiment: Cytotoxicity against Homo sapiens (human) NCI-H522 cells assessed as growth inhibition at 10 uM after 48 hr by coulter counter analysis; conditions: NCI-H522, 48 h, read-out: GI
[5] = tested on: Hs-578T; experiment: Cytotoxicity against Homo sapiens (human) Hs578T cells assessed as growth inhibition at 10 uM after 48 hr by coulter counter analysis; conditions: read-out: GI
[6] = tested on: A549; experiment: Cytotoxicity against Homo sapiens (human) A549 cells assessed as growth inhibition at 10 uM after 48 hr by coulter counter analysis; conditions: A549, 48 h, read-out: GI
[7] = tested on: BT-549; experiment: Cytotoxicity against Homo sapiens (human) BT549 cells assessed as growth inhibition at 10 uM after 48 hr by coulter counter analysis; conditions: BT-549, 48 h, read-out: GI
[8] = tested on: U-251; experiment: Cytotoxicity against Homo sapiens (human) U251 cells assessed as growth inhibition at 10 uM after 48 hr by coulter counter analysis; conditions: U-251, 48 h, read-out: GI
[9] = tested on: SK-MEL-5; experiment: Cytotoxicity against Homo sapiens (human) SK-MEL-5 cells assessed as growth inhibition at 10 uM after 48 hr by coulter counter analysis; conditions: SK-MEL-5, 48 h, read-out: GI
[10] = tested on: MDA-MB-435; experiment: Cytotoxicity against Homo sapiens (human) MDA-MB-435 cells assessed as growth inhibition at 10 uM after 48 hr by coulter counter analysis; conditions: MDA-MB-435, 48 h, read-out: GI
[11] = tested on: UACC-257; experiment: Cytotoxicity against Homo sapiens (human) UACC257 cells assessed as growth inhibition at 10 uM after 48 hr by coulter counter analysis; conditions: UACC-257, 48 h, read-out: GI
[12] = tested on: T47D; experiment: Cytotoxicity against Homo sapiens (human) T47D cells assessed as growth inhibition at 10 uM after 48 hr by coulter counter analysis; conditions: read-out: GI
[13] = tested on: 786-0; experiment: Cytotoxicity against Homo sapiens (human) 786-0 cells assessed as growth inhibition at 10 uM after 48 hr by coulter counter analysis; conditions: 786-0, 48 h, read-out: GI
[14] = tested on: NCI-H460; experiment: Cytotoxicity against Homo sapiens (human) NCI-H460 cells assessed as growth inhibition at 10 uM after 48 hr by coulter counter analysis; conditions: NCI-H460, 48 h, read-out: GI
[15] = tested on: EKVX; experiment: Cytotoxicity against Homo sapiens (human) EKVX cells assessed as growth inhibition at 10 uM after 48 hr by coulter counter analysis; conditions: read-out: GI
[16] = tested on: SNB-75; experiment: Cytotoxicity against Homo sapiens (human) SNB75 cells assessed as growth inhibition at 10 uM after 48 hr by coulter counter analysis; conditions: SNB-75, 48 h, read-out: GI
[17] = tested on: A498; experiment: Cytotoxicity against Homo sapiens (human) A498 cells assessed as growth inhibition at 10 uM after 48 hr by coulter counter analysis; conditions: A498, 48 h, read-out: GI
[18] = tested on: HOP-62; experiment: Cytotoxicity against Homo sapiens (human) HOP62 cells assessed as growth inhibition at 10 uM after 48 hr by coulter counter analysis; conditions: HOP-62, 48 h, read-out: GI
[19] = tested on: CCRF-CEM; experiment: Cytotoxicity against Homo sapiens (human) CCRF-CEM cells assessed as growth inhibition at 10 uM after 48 hr by coulter counter analysis; conditions: read-out: GI

O=c1c2ccccc2nc(SCCN2CCCCC2)n1CCc1ccccc1
inhibition of growth at 10 µM [1]: < 10%
inhibition of growth at 10 µM [2]: < 10%
inhibition of growth at 10 µM [3]: < 10%
inhibition of growth at 10 µM [4]: 11%
inhibition of growth at 10 µM [5]: < 10%
inhibition of growth at 10 µM [6]: 13%
inhibition of growth at 10 µM [7]: 14%
inhibition of growth at 10 µM [8]: 14%
inhibition of growth at 10 µM [9]: 24%
inhibition of growth at 10 µM [10]: < 10%
inhibition of growth at 10 µM [11]: < 10%
inhibition of growth at 10 µM [12]: 35%
inhibition of growth at 10 µM [13]: 14%
inhibition of growth at 10 µM [14]: < 10%
inhibition of growth at 10 µM [15]: 30%
inhibition of growth at 10 µM [16]: 13%
inhibition of growth at 10 µM [17]: 17%
inhibition of growth at 10 µM [18]: 11%

COc1ccc(-n2c(S)nnc2CSc2nc3ccccc3c(=O)n2CCc2ccccc2)cc1
inhibition of growth at 10 µM [1]: < 10%
inhibition of growth at 10 µM [2]: < 10%
inhibition of growth at 10 µM [3]: < 10%
inhibition of growth at 10 µM [4]: < 10%
inhibition of growth at 10 µM [5]: < 10%
inhibition of growth at 10 µM [6]: < 10%
inhibition of growth at 10 µM [7]: < 10%
inhibition of growth at 10 µM [8]: 11%
inhibition of growth at 10 µM [9]: 24%
inhibition of growth at 10 µM [10]: < 10%
inhibition of growth at 10 µM [11]: < 10%
inhibition of growth at 10 µM [12]: < 10%
inhibition of growth at 10 µM [13]: < 10%
inhibition of growth at 10 µM [14]: < 10%
inhibition of growth at 10 µM [15]: 31%
inhibition of growth at 10 µM [19]: 13%
inhibition of growth at 10 µM [16]: < 10%
inhibition of growth at 10 µM [17]: 51%
inhibition of growth at 10 µM [18]: < 10%

O=C(CSc1nc2ccccc2c(=O)n1CCc1ccccc1)c1ccccc1
inhibition of growth at 10 µM [1]: < 10%
inhibition of growth at 10 µM [2]: < 10%
inhibition of growth at 10 µM [3]: < 10%
inhibition of growth at 10 µM [4]: 11%
inhibition of growth at 10 µM [5]: < 10%
inhibition of growth at 10 µM [6]: 18%
inhibition of growth at 10 µM [7]: < 10%
inhibition of growth at 10 µM [8]: 11%
inhibition of growth at 10 µM [9]: < 10%
inhibition of growth at 10 µM [10]: < 10%
inhibition of growth at 10 µM [11]: < 10%
inhibition of growth at 10 µM [12]: < 10%
inhibition of growth at 10 µM [13]: < 10%
inhibition of growth at 10 µM [14]: < 10%
inhibition of growth at 10 µM [15]: 18%
inhibition of growth at 10 µM [16]: 18%
inhibition of growth at 10 µM [17]: 46%
inhibition of growth at 10 µM [18]: < 10%

O=c1c2ccccc2nc(SCc2nnc(S)n2-c2ccccc2)n1CCc1ccccc1
inhibition of growth at 10 µM [1]: < 10%
inhibition of growth at 10 µM [2]: < 10%
inhibition of growth at 10 µM [3]: < 10%
inhibition of growth at 10 µM [4]: < 10%
inhibition of growth at 10 µM [5]: < 10%
inhibition of growth at 10 µM [6]: < 10%
inhibition of growth at 10 µM [7]: < 10%
inhibition of growth at 10 µM [8]: 11%
inhibition of growth at 10 µM [9]: 24%
inhibition of growth at 10 µM [10]: < 10%
inhibition of growth at 10 µM [12]: 38%
inhibition of growth at 10 µM [13]: < 10%
inhibition of growth at 10 µM [14]: < 10%
inhibition of growth at 10 µM [15]: 31%
inhibition of growth at 10 µM [19]: 28%
inhibition of growth at 10 µM [16]: < 10%
inhibition of growth at 10 µM [17]: 41%
inhibition of growth at 10 µM [18]: 24%

O=c1c2ccccc2nc(SCc2nnc(S)n2Cc2ccccc2)n1CCc1ccccc1
inhibition of growth at 10 µM [1]: < 10%
inhibition of growth at 10 µM [2]: 22%
inhibition of growth at 10 µM [3]: < 10%
inhibition of growth at 10 µM [4]: 46%
inhibition of growth at 10 µM [5]: < 10%
inhibition of growth at 10 µM [6]: 12%
inhibition of growth at 10 µM [7]: < 10%
inhibition of growth at 10 µM [8]: < 10%
inhibition of growth at 10 µM [9]: < 10%
inhibition of growth at 10 µM [10]: < 10%
inhibition of growth at 10 µM [11]: < 10%
inhibition of growth at 10 µM [12]: 38%
inhibition of growth at 10 µM [13]: < 10%
inhibition of growth at 10 µM [15]: 17%
inhibition of growth at 10 µM [19]: 13%
inhibition of growth at 10 µM [16]: < 10%
inhibition of growth at 10 µM [17]: < 10%
inhibition of growth at 10 µM [18]: < 10%

O=c1c2ccccc2nc(SCc2ccc([N+](=O)[O-])cc2)n1CCc1ccccc1
inhibition of growth at 10 µM [1]: < 10%
inhibition of growth at 10 µM [3]: < 10%
inhibition of growth at 10 µM [4]: < 10%
inhibition of growth at 10 µM [5]: 19%
inhibition of growth at 10 µM [6]: 16%
inhibition of growth at 10 µM [7]: < 10%
inhibition of growth at 10 µM [8]: < 10%
inhibition of growth at 10 µM [9]: < 10%
inhibition of growth at 10 µM [10]: < 10%
inhibition of growth at 10 µM [11]: < 10%
inhibition of growth at 10 µM [12]: 15%
inhibition of growth at 10 µM [13]: < 10%
inhibition of growth at 10 µM [14]: < 10%
inhibition of growth at 10 µM [15]: 19%
inhibition of growth at 10 µM [16]: < 10%
inhibition of growth at 10 µM [17]: < 10%
inhibition of growth at 10 µM [18]: < 10%

From ChEMBL document CHEMBL3044826, “Design, synthesis and biological evaluation of some novel substituted 2-mercapto-3-phenethylquinazolines as antitumor agents” (2013)
